Literature values as cited in patent US11874283B2, “Method and compositions for the treatment and detection of endothelin-1 related kidney diseases” (MOREHOUSE SCHOOL OF MEDICINE, priority 2010, dated 2024).
Ends that are not written are not given here.

Test system: ET-1 ELISA
Conditions: as determined by the manufacturer

ET-2: endothelin peptide cross-reacting in the ET-1 ELISA (CSCSSWLDKECVYFCHLDIIW; ends and bridges not checked; cysteine pairing not given here; UniProt P20800 49-69, looked up)
Cross reactivity: 45%

ET-3: endothelin peptide cross-reacting in the ET-1 ELISA (CTCFTYKDKECVYYCHLDIIW; ends and bridges not checked; cysteine pairing not given here; UniProt P14138 97-117, looked up)
Cross reactivity: 14%

big ET-1: biologically inactive 38-amino acid precursor of ET-1 (CSCSSLMDKECVYFCHLDIIWVNTPEHVVPYGLGSPRS; ends and bridges not checked; cysteine pairing not given here; UniProt P05305 53-90, looked up)
Cross reactivity: less than 1%
